Consider ten compounds from PubChem BioAssay (NCI).

Among the test systems are K-562 leukemia; MOLT-4 leukemia; NCI-H460 lung; OVCAR-4 ovarian; OVCAR-5 ovarian; RPMI-8226 leukemia; SF-268 CNS; SF-539 CNS; U251 CNS; UO-31 renal.
Assay in all cases: NCI-60 cell line screen, 48 h

Several values for one entry are separate records, joined by “and”; a condition that tells them apart may be missing. Equal entries are not always repeated.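 Exposure lasted 48 hours, with cells grown in 96-well plates and compounds tested at five concentrations. GI50 = concentration required for 50% inhibition of growth. TGI denotes the concentration required for complete inhibition of growth.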

Regarding `CCN1CCN(c2cc(C(=O)Nc3cccc(Nc4ccc5c(OC)cccc5n4)c3)cc(C(F)(F)F)c2)CC1`, the GI50 is 0.91 µM in the experiment with K-562 leukemia; 0.616 µM with MOLT-4 leukemia; 1.34 µM in the experiment with NCI-H460 lung; 1.57 µM with OVCAR-4 ovarian; 2.78 µM with OVCAR-5 ovarian; 1.2 µM in the experiment on RPMI-8226 leukemia. Further, the GI50 in the experiment on SF-268 CNS is 1.76 µM; in the experiment on SF-539 CNS, 3.28 µM; with U251 CNS, 1.36 µM; with UO-31 renal it was 0.746 µM. The TGI turned out to be 2.77 µM in the experiment on K-562 leukemia; 12.3 µM in the experiment on MOLT-4 leukemia; 5.32 µM with NCI-H460 lung; 9.32 µM with OVCAR-4 ovarian; 7.84 µM with OVCAR-5 ovarian; 5.32 µM in the experiment on RPMI-8226 leukemia. Further, the TGI in the experiment with SF-268 CNS was 7.41 µM; in the experiment on SF-539 CNS, 7.31 µM; with U251 CNS it was 4.94 µM; with UO-31 renal, 3.88 µM.

As to `Cc1ccc2oc(=O)c3c(O)c4cccc(OC5OC(C)C6O[C@@H](c7ccccc7)OC6C5OC5OC(C)C(O)C(O)C5O)c4c4oc(=O)c1c2c34` (stereo partly specified), the GI50 with K-562 leukemia is 0.0708 µM; in the experiment on MOLT-4 leukemia it was 0.00436 µM and 0.0137 µM; with NCI-H460 lung it was 0.00467 µM; in the experiment with OVCAR-5 ovarian, 0.218 µM; with U251 CNS, 0.0825 µM; in the experiment with UO-31 renal, 0.4 µM. In addition, the TGI in the experiment with K-562 leukemia was 2.6 µM; with MOLT-4 leukemia it was 0.109 µM and 0.161 µM; in the experiment on NCI-H460 lung, 1.03 µM and 0.545 µM; with OVCAR-4 ovarian it was 3.53 µM; with OVCAR-5 ovarian, 1.13 µM and 2.7 µM; with RPMI-8226 leukemia, 0.888 µM. Also, the TGI is 1.59 µM and 1.71 µM in the experiment with SF-268 CNS; 1.34 µM and 1.39 µM with SF-539 CNS; 1.16 µM and 1.58 µM in the experiment on U251 CNS; 1.99 µM and 7.47 µM with UO-31 renal.

For the compound `COC(=O)/C(C#N)=C1\CCC(OC)N1C` (stereo unspecified), the TGI in the experiment with K-562 leukemia, with MOLT-4 leukemia, with NCI-H460 lung, in the experiment on OVCAR-4 ovarian, in the experiment on OVCAR-5 ovarian and with RPMI-8226 leukemia was greater than 100 µM in each case. The TGI in the experiment on SF-268 CNS, in the experiment on SF-539 CNS, in the experiment with U251 CNS and with UO-31 renal was greater than 100 µM in each case.

With `CS(=O)(=O)c1ccc(COP(N)(=O)N(CCCl)CCCl)cc1` (stereo unspecified), the TGI in the experiment with K-562 leukemia, in the experiment on MOLT-4 leukemia, in the experiment on NCI-H460 lung, with OVCAR-4 ovarian, in the experiment on OVCAR-5 ovarian and in the experiment on RPMI-8226 leukemia was greater than 100 µM throughout. The TGI with SF-268 CNS, in the experiment with SF-539 CNS, in the experiment on U251 CNS and in the experiment with UO-31 renal was greater than 100 µM each time.

Consider `O=[N+]([O-])c1cc(/C=N\NS(=O)(=O)c2ccc(Cl)cc2)c(O)c([N+](=O)[O-])c1`, for which the TGI in the experiment with K-562 leukemia was 79.5 µM; with MOLT-4 leukemia, 86 µM; with NCI-H460 lung, 54.4 µM; with OVCAR-4 ovarian it was greater than 100 µM; in the experiment on OVCAR-5 ovarian, greater than 100 µM; in the experiment with RPMI-8226 leukemia, 80.9 µM. Also, the TGI in the experiment with SF-268 CNS is greater than 100 µM; in the experiment on SF-539 CNS it was 44.2 µM; with U251 CNS, 54.3 µM; in the experiment with UO-31 renal, greater than 100 µM.

Take `C=CCC12CC(=O)CCC1c1ccc(OC)cc1C2=O` (stereo unspecified): the TGI in the experiment with K-562 leukemia, in the experiment on MOLT-4 leukemia, in the experiment with NCI-H460 lung, in the experiment with OVCAR-4 ovarian, with OVCAR-5 ovarian and in the experiment on RPMI-8226 leukemia was greater than 100 µM in each case. The TGI in the experiment with SF-268 CNS, in the experiment with SF-539 CNS, in the experiment on U251 CNS and in the experiment on UO-31 renal was greater than 100 µM each time.

Consider `COc1cc2c(cc1OC)C(C(CBr)CBr)N(C1CCCC1)CC2` (stereo unspecified), for which the TGI with K-562 leukemia, with MOLT-4 leukemia, in the experiment on NCI-H460 lung, in the experiment on OVCAR-4 ovarian, in the experiment with OVCAR-5 ovarian and in the experiment with RPMI-8226 leukemia was greater than 100 µM in each case. For the same compound, the TGI in the experiment with SF-268 CNS, with SF-539 CNS, in the experiment on U251 CNS and with UO-31 renal was greater than 100 µM each time.

As to `Cc1nn(C)c2ncnc(N/N=C/c3cccc(O)c3O)c12`, the GI50 is 0.387 µM with K-562 leukemia; 0.323 µM with MOLT-4 leukemia; 0.431 µM in the experiment on NCI-H460 lung; 0.378 µM in the experiment on OVCAR-4 ovarian; 4.06 µM with OVCAR-5 ovarian; 0.526 µM in the experiment with RPMI-8226 leukemia. The GI50 in the experiment on SF-268 CNS is 0.342 µM; with SF-539 CNS it was 0.371 µM; with U251 CNS, 0.513 µM; with UO-31 renal, 0.251 µM. Further, the TGI in the experiment with K-562 leukemia was greater than 100 µM; in the experiment with MOLT-4 leukemia, 28.7 µM; in the experiment with NCI-H460 lung it was greater than 39.7 µM; in the experiment on OVCAR-4 ovarian it was 23.4 µM; with OVCAR-5 ovarian it was greater than 100 µM; in the experiment with RPMI-8226 leukemia, greater than 100 µM. Further, the TGI was 20.4 µM in the experiment on SF-268 CNS, 7.1 µM in the experiment on SF-539 CNS, greater than 100 µM with U251 CNS and 2.19 µM in the experiment on UO-31 renal.

As for `Cc1ccc(N2C(=O)/C(=C/c3ccc(N(CCC#N)CCC#N)cc3)N=C2COc2ccc(Cl)cc2Cl)cc1`, the TGI with K-562 leukemia, in the experiment with MOLT-4 leukemia, in the experiment on NCI-H460 lung, in the experiment with OVCAR-4 ovarian, with OVCAR-5 ovarian and in the experiment with RPMI-8226 leukemia was greater than 100 µM throughout. The TGI with SF-268 CNS, in the experiment on SF-539 CNS, with U251 CNS and in the experiment on UO-31 renal was greater than 100 µM each time.

Regarding `COc1cc(S(=O)(=O)Nc2nc(-c3ccc(N4C(=O)C(C)SC4c4ccccc4O)cc3)cs2)ccc1Cl` (stereo unspecified), the GI50 with K-562 leukemia is 33.4 µM; in the experiment with MOLT-4 leukemia, 34.4 µM; in the experiment on NCI-H460 lung it was 42.5 µM; in the experiment with OVCAR-4 ovarian, 26.4 µM; with OVCAR-5 ovarian it was 49.5 µM; in the experiment on RPMI-8226 leukemia, 17.4 µM. Moreover, the GI50 was 41.4 µM in the experiment on SF-268 CNS, 32.6 µM with SF-539 CNS, 32.8 µM in the experiment on U251 CNS and 37.2 µM in the experiment with UO-31 renal. The TGI in the experiment on K-562 leukemia, in the experiment with MOLT-4 leukemia, in the experiment with NCI-H460 lung, in the experiment with OVCAR-4 ovarian, in the experiment with OVCAR-5 ovarian and with RPMI-8226 leukemia was greater than 100 µM throughout. Moreover, the TGI with SF-268 CNS, in the experiment with SF-539 CNS, with U251 CNS and in the experiment with UO-31 renal was greater than 100 µM throughout.
